Results: patent publication US6274715A, “Tricyclic erythromycin derivatives” (priority 1997, dated 2001)
Converted amounts (≈) assume the structure as drawn.

Key:
Assay type in all cases: cell-based
[1] = tested on: STAPHYLOCOCCUS AUREUS A-5278; experiment: In vitro antibacterial activity, MIC, BHI agar dilution; details: S. aureus A-5278, unit assumed
[2] = tested on: PSEUDOMONAS AERUGINOSA K799/WT; experiment: as above; details: P. aeruginosa K799/WT, unit assumed
[3] = tested on: STREPTOCOCCUS PYOGENES EES61; experiment: as above; details: S. pyogenes EES61, unit assumed
[4] = tested on: MYCOBACTERIUM SMEGMATIS ATCC 114; experiment: as above; details: M. smegmatis ATCC 114, unit assumed
ESCHERICHIA COLI KNK 437 = details: E. coli KNK 437; BHI agar; unit assumed
[5] = tested on: STAPHYLOCOCCUS AUREUS ATCC 6538P; experiment: In vitro antibacterial activity, MIC, BHI agar dilution; details: S. aureus ATCC 6538P, 35-37° C., 20 to 24 hours, unit assumed
[6] = tested on: STAPHYLOCOCCUS AUREUS NCTC10649M; experiment: as above; details: S. aureus NCTC10649M, unit assumed
M[…] ATCC 9341 = experiment: as above; details: M. luteus ATCC 9341, unit assumed
Summary of the method: (§1)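 MIC was read visually as the lowest drug level with no growth, a slight haze or sparsely isolated colonies relative to a compound-free growth control. Organisms were spotted at 1:100 dilution (1:10 for slow-growing strains) onto Brain Heart Infusion agar containing serial compound dilutions and incubated 20 to 24 hours at 35-37° C.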

M[…] ATCC 4698 = experiment: as above; details: M. luteus ATCC 4698, unit assumed
Summary of the method: as §1

EN[…] ATCC 8043 = experiment: as above; details: E. faecium ATCC 8043, unit assumed
Summary of the method: as §1

STR[…] 508 = experiment: as above; details: S. agalactiae CMX 508, unit assumed
Summary of the method: as §1

ESCHERICHIA COLI SS = experiment: as above; details: E. coli SS, unit assumed
[7] = tested on: PROVIDENCIA STUARTII CMX 640; details: P. stuartii CMX 640; BHI agar; unit assumed
[8] = tested on: STAPHYLOCOCCUS AUREUS 1775; experiment: In vitro antibacterial activity, MIC, BHI agar dilution; details: S. aureus 1775, unit assumed
[9] = tested on: PSEUDOMONAS AERUGINOSA 5007; experiment: as above; details: P. aeruginosa 5007, unit assumed
[10] = tested on: STREPTOCOCCUS BOVIS A-5169; experiment: as above; details: S. bovis A-5169, unit assumed
[11] = tested on: STREPTOCOCCUS PYOGENES PIU 2548; experiment: as above; details: S. pyogenes PIU 2548, unit assumed
ESCHERICHIA COLI JUHL = details: E. coli JUHL; BHI agar; unit assumed
ESCHERICHIA COLI H560 = experiment: In vitro antibacterial activity, MIC, BHI agar dilution; details: E. coli H560, unit assumed
[12] = tested on: PSEUDOMONAS AERUGINOSA K799/61; experiment: as above; details: P. aeruginosa K799/61, unit assumed
[13] = tested on: STAPHYLOCOCCUS AUREUS CMX 553; experiment: as above; details: S. aureus CMX 553, unit assumed
[14] = tested on: PSEUDOMONAS AERUGINOSA DPHD-5263; experiment: as above; details: P. aeruginosa DPHD-5263, unit assumed
CANDIDA ALBICANS CCH 442 = experiment: as above; details: C. albicans CCH 442, unit assumed
[15] = tested on: KLEBSIELLA PNEUMONIAE ATCC 8045; experiment: as above; details: K. pneumoniae ATCC 8045, unit assumed
[16] = tested on: ENTEROBACTER AEROGENES ATCC 13048; experiment: as above; details: E. aerogenes ATCC 13048, unit assumed
[17] = tested on: STAPHYLOCOCCUS EPIDERMIDIS 3519; details: S. epidermidis 3519; BHI agar; unit assumed
[18] = tested on: PSEUDOMONAS AERUGINOSA BMH10; experiment: In vitro antibacterial activity, MIC, BHI agar dilution; details: P. aeruginosa BMH10, unit assumed
ESCHERICHIA COLI DC-2 = experiment: as above; details: E. coli DC-2, unit assumed
[19] = tested on: PSEUDOMONAS AERUGINOSA DPHD-2862; experiment: as above; details: P. aeruginosa DPHD-2862, unit assumed
[20] = tested on: STAPHYLOCOCCUS AUREUS A5177; experiment: as above; details: S. aureus A5177, unit assumed
PSEUDOMONAS CEPACIA 296I = experiment: as above; details: P. cepacia 296I, unit assumed
[21] = tested on: STREPTOCOCCUS PYOGENES 930; experiment: as above; details: S. pyogenes 930, unit assumed
[22] = tested on: STAPHYLOCOCCUS AUREUS CMX 642A; experiment: as above; details: S. aureus CMX 642A, unit assumed

Row | SMILES | MIC [1] | MIC [2] | MIC [3] | MIC [4] | MIC (ESCHERICHIA COLI KNK 437) | MIC [5] | MIC [6] | MIC (M[…] ATCC 9341) | MIC (M[…] ATCC 4698) | MIC (EN[…] ATCC 8043) | MIC (STR[…] 508) | MIC (ESCHERICHIA COLI SS) | MIC [7] | MIC [8] | MIC [9] | MIC [10] | MIC [11] | MIC (ESCHERICHIA COLI JUHL) | MIC (ESCHERICHIA COLI H560) | MIC [12] | further results
1 | CC[C@H]1OC(=O)[C@H](C)C(=O)[C@H](C)[C@@H](O[C@@H]2O[C@H](C)C[C@H](N(C)C)[C@H]2O)[C@](C)(OC)C[C@@H](C)C2=N[C@H](CN3CCN(C)CC3)CN3C(=O)O[C@@]1(C)[C@H]3[C@H]2C [Example 93] | > 100 µg/mL | > 100 µg/mL | 0.02 µg/mL (≈ 0.0267 µM) | 12.5 µg/mL (≈ 16.7 µM) | > 100 µg/mL | 0.78 µg/mL (≈ 1.04 µM) | 0.78 µg/mL (≈ 1.04 µM) | 0.1 µg/mL (≈ 0.133 µM) | 0.78 µg/mL (≈ 1.04 µM) | 0.39 µg/mL (≈ 0.52 µM) | 0.1 µg/mL (≈ 0.133 µM) | 0.78 µg/mL (≈ 1.04 µM) | > 100 µg/mL | > 100 µg/mL | > 100 µg/mL | 0.02 µg/mL (≈ 0.0267 µM) | 3.1 µg/mL (≈ 4.13 µM) | > 100 µg/mL | 100 µg/mL (≈ 133 µM) | 3.1 µg/mL (≈ 4.13 µM) | MIC [13]: 0.78 µg/mL (≈ 1.04 µM); MIC [14]: > 100 µg/mL; MIC (CANDIDA ALBICANS CCH 442): > 100 µg/mL; MIC [15]: > 100 µg/mL; MIC [16]: > 100 µg/mL; MIC [17]: 0.78 µg/mL (≈ 1.04 µM); MIC [18]: > 100 µg/mL; MIC (ESCHERICHIA COLI DC-2): > 100 µg/mL; MIC [19]: > 100 µg/mL; MIC [20]: 0.78 µg/mL (≈ 1.04 µM); MIC (PSEUDOMONAS CEPACIA 296I): > 100 µg/mL; MIC [21]: > 100 µg/mL; MIC [22]: 0.78 µg/mL (≈ 1.04 µM)
2 | CC[C@H]1OC(=O)[C@H](C)C(=O)[C@H](C)[C@@H](O[C@@H]2O[C@H](C)C[C@H](N(C)C)[C@H]2O)[C@](C)(OC)C[C@@H](C)C2=N[C@H](CN3CCOCC3)CN3C(=O)O[C@@]1(C)[C@H]3[C@H]2C [Example 95] | > 100 µg/mL | > 100 µg/mL | 0.05 µg/mL (≈ 0.0678 µM) | 3.1 µg/mL (≈ 4.21 µM) | > 100 µg/mL | 0.39 µg/mL (≈ 0.529 µM) | 0.39 µg/mL (≈ 0.529 µM) | 0.1 µg/mL (≈ 0.136 µM) | 0.39 µg/mL (≈ 0.529 µM) | 0.2 µg/mL (≈ 0.271 µM) | 0.1 µg/mL (≈ 0.136 µM) | 0.39 µg/mL (≈ 0.529 µM) | > 100 µg/mL | > 100 µg/mL | > 100 µg/mL | 0.02 µg/mL (≈ 0.0271 µM) | 0.39 µg/mL (≈ 0.529 µM) | 100 µg/mL (≈ 136 µM) | 50 µg/mL (≈ 67.8 µM) | 1.56 µg/mL (≈ 2.12 µM) | MIC [13]: 0.39 µg/mL (≈ 0.529 µM); MIC [14]: > 100 µg/mL; MIC (CANDIDA ALBICANS CCH 442): > 100 µg/mL; MIC [15]: > 100 µg/mL; MIC [16]: > 100 µg/mL; MIC [17]: 0.39 µg/mL (≈ 0.529 µM); MIC [18]: > 100 µg/mL; MIC (ESCHERICHIA COLI DC-2): > 100 µg/mL; MIC [19]: > 100 µg/mL; MIC [20]: 0.39 µg/mL (≈ 0.529 µM); MIC (PSEUDOMONAS CEPACIA 296I): > 100 µg/mL; MIC [21]: > 100 µg/mL; MIC [22]: 0.39 µg/mL (≈ 0.529 µM)
